Assay results: ChEMBL document CHEMBL4431318, “Design, synthesis and biological evaluation of novel 5-fluoro-1H-benzimidazole-4-carboxamide derivatives as potent PARP-1 inhibitors” (Bioorg Med Chem Lett, 2016)

What was measured:
[1] = target: T1, Poly [ADP-ribose] polymerase 1 (Homo sapiens, UniProt P09874); test: Inhibition of PARP1 (unknown origin)
HCT-116 [2] = test: Cytotoxicity against human HCT116 cells by SRB assay; type: functional, cell-based
HCT-116 [3] = test: Potency index, ratio of IC50 for veliparib to IC50 for test compound against human HCT116 cells; type: functional
[4] = target: T1, Poly [ADP-ribose] polymerase 1; conditions: A549
Description: Inhibition of PARP1 in human A549 cells assessed as potentiation of TMZ-mediated cytotoxicity at 0.5 uM by SRB assay

T1 sequence (P09874 whole entry): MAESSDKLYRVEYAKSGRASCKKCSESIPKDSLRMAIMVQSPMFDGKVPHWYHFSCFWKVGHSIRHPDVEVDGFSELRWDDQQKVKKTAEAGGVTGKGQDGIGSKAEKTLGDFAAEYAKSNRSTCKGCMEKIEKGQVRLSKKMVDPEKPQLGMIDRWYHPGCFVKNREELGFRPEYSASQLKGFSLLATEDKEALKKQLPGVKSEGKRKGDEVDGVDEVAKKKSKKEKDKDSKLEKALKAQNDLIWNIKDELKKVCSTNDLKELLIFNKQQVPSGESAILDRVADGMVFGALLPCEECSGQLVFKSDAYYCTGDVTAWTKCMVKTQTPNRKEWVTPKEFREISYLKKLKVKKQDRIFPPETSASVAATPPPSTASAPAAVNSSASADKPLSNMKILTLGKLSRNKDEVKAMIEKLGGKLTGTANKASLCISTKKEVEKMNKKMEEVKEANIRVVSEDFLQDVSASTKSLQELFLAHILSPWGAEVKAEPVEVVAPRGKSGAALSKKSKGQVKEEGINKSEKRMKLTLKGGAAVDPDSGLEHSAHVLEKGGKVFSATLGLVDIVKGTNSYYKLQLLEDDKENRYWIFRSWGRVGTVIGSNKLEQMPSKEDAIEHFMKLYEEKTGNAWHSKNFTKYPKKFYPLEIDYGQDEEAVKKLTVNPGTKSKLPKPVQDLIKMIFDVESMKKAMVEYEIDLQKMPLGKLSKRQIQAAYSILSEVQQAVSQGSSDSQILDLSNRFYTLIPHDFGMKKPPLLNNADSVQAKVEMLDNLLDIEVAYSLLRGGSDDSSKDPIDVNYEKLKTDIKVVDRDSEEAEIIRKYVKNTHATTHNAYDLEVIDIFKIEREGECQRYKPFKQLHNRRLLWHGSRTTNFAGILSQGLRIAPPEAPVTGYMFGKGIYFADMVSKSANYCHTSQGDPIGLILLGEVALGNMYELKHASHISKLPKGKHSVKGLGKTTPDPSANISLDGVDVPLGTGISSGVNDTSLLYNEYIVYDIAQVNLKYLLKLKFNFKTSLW

## NC(=O)c1c(F)ccc2[nH]c(-c3ccc(N4CCOCC4)cc3)nc12
[1]
  IC50: 21.8 nM
HCT-116 [2]; Homo sapiens, HCT-116
  IC50: 27000 nM
HCT-116 [3]
  Ratio IC50: 2.3

## CN1CCC[C@@]1(C)c1nc2c(C(N)=O)c(F)ccc2[nH]1
[1]
  IC50: 21.7 nM
HCT-116 [2]; Homo sapiens, HCT-116
  IC50: > 100000 nM

## NC(=O)c1c(F)ccc2[nH]c(-c3ccc(N4CCNCC4)cc3)nc12
[1]
  IC50: 43.7 nM
HCT-116 [2]; Homo sapiens, HCT-116
  IC50: 7400 nM
HCT-116 [3]
  Ratio IC50: 8.6

## C[C@]1(c2nc3c(C(N)=O)cccc3[nH]2)CCCN1 [VELIPARIB]
HCT-116 [2]; hct-116
  IC50: 64000 nM
[4]
  PF50: 2.2

## NC(=O)c1c(F)ccc2[nH]c(C3CCNCC3)nc12
[1]
  IC50: 39.1 nM
HCT-116 [2]; Homo sapiens, HCT-116
  IC50: > 100000 nM

## NC(=O)c1c(F)ccc2[nH]c(C3CCCNC3)nc12 (configuration not stated)
[1]
  IC50: 25.8 nM

## C[C@]1(c2nc3c(C(N)=O)c(F)ccc3[nH]2)CCCN1
[1]
  IC50: 5.7 nM
HCT-116 [2]; Homo sapiens, HCT-116
  IC50: > 100000 nM

## CCCN1CCC(c2nc3c(C(N)=O)c(F)ccc3[nH]2)CC1
[1]
  IC50: 29.8 nM
HCT-116 [2]; Homo sapiens, HCT-116
  IC50: 65500 nM
